Results from patent US11691968B2, “Compound having KDM5 inhibitory activity and pharmaceutical use thereof” (ONO PHARMACEUTICAL CO., LTD., priority 2020, dated 2023).
Where two headings read alike, the source gives them in different places.

Experiments:
[1] = target: KDM5A (Homo sapiens (Human), UniProt P29375); experiment: Biochemical KDM5A Inhibition Assay (HTRF); conditions: KDM5A protein, biotin-labelled H3K4-Me3 substrate
Description: Biochemical KDM5A Inhibition Assay
Using 384-well white Greiner784075 (Greiner), representative compounds were characterized for their inhibition of KDM5A using HTRF® technology (Cisbio Bioassays). Briefly, the test compounds, reference compounds, and DMSO control (typical compound concentration range 1 μM-[…], final assay concentration (FAC*) of DMSO 0.5%) were added to 384-well plate by the Echo® acoustic dispensing platform (Labcyte). Five (5) 1l of KDM5A protein (produced by the method described in Nat Chem Biol 12, 531-538 (2016)). (5-20 nM FAC*) in assay buffer (50 mM MES, 50 mM NaCl, 1 mM TCEP, 0.01% v/v Tween 20, 0.03% BSA, pH 6.5) was added to wells and plates were incubated for 10-20 minutes at 25 degrees celsius. Then, 5 μl of alpha-ketoglutaric acid (100 μM FAC*), biotin-labelled H3K4-Me3 substrate (Anaspec Cat #AS-64357-1; 200 nM FAC*), Fe(II)SO4 (100 μM FAC*) and ascorbic acid (2 mM FAC*) in assay buffer was added to wells and plates were incubated for 20 minutes at room temperature. The reaction was stopped with the addition of 10 μl of anti-H3K4-Me2-Eu(K) (Cisbio Bioassays Cat #61KA2KAH; 0.75 nM FAC**)+Streptavidin XL665 (Cisbio Bioassays Cat #610SAXLB; 25 nM FAC**) in HTRF detection buffer (Cisbio Bioassays Cat #62SDBRDF). The mixture was incubated for 30 minutes at room temperature before 340 nm excitation and measurement of dual emission at 620 nm and 665 run. *FAC: final assay concentration calculated based on 10 μl of the assay buffer**FAC: final assay concentration calculated based on 20 μl of the detection buffer
The raw data (a 665 nm and a 620 nm reading from each well) for individual assay plates were analyzed. The ratio of emissions was calculated using the following calculation: Ratio=(665 nm emission/620 nm emission)×10000. […] Compound IC50 values were calculated from graphs of % inhibition plotted against compound concentration, using a four parameter curve fit. [Results]

[2] = Brain Concentration in Mice; format: in vivo; conditions: mouse, mice (C57BL/6)
Description: Brain Concentration in Mice
Test compounds were orally administered to mice (C57BL/6) at 1 or 3 mg/kg. Brain samples were collected 2 h after the administration and homogenized with 3-fold volumes of distilled water.
LC-MS/MS analysis was conducted as specified below. Standard calibration samples were prepared using the same matrix and analyzed in the same manner.
Standard calibration samples were analyzed to calculate a regression equation from the peak area ratio (test compound/internal standard). The peak area ratio was determined for a measurement sample and assigned to the regression equation to calculate an assay value.

[3] = Metabolic Stability in Human Liver Microsomes; format: in vitro ADME
Description: Metabolic Stability in Human Liver Microsomes
Human liver microsome (BD Gentest Corporation, Cat No. #452161) incubations were conducted in duplicate in 96-well plates. Each well contains 40 μL of 0.1 M potassium phosphate buffer (pH 7.4), 4.125 mM MgCl2, 0.625 mg/mL liver microsomes, and test compound (1.25 μM). After 5-min preincubation at 37° C., 10 uL of 5.0 mM NADPH in 0.1M potassium phosphate buffer was added to initiate the enzymatic reaction. The final component concentrations are 0.1M potassium phosphate buffer (pH 7.4), 1.0 mM NADPH, 3.3 mM MgCl2, 0.5 mg/mL liver microsomes, and test compound (1.0 μM). Reactions were terminated at 0 and 60 min by adding 200 μL of ice-cold acetonitrile containing internal standard.
LC-MS/MS analysis was conducted as specified below.
The remaining at 60 min (%) of test compound was calculated from the peak area ratio (test compound/internal standard) of samples collected 0 and 60 min after the start of the reaction according to the formula described below. Remaining at 60 min (%)=peak area ratio of sample collected at 60 min/peak area ratio of sample collected at 0 min×100 [Results]

[4] = human, microsomes, 1 h, 1 μM, pH 7.4
[5] = po, orally administered, 1 mg/kg, brain 2 h after administration, read-out: Unbound-Brain Concentration at 2 h at 1 mg/kg
[6] = 0.5 mg/mL liver microsomes, 1.0 μM test compound, 1.0 mM NADPH, 37° C., 60 min

KDM5A, sequence (P29375 whole entry): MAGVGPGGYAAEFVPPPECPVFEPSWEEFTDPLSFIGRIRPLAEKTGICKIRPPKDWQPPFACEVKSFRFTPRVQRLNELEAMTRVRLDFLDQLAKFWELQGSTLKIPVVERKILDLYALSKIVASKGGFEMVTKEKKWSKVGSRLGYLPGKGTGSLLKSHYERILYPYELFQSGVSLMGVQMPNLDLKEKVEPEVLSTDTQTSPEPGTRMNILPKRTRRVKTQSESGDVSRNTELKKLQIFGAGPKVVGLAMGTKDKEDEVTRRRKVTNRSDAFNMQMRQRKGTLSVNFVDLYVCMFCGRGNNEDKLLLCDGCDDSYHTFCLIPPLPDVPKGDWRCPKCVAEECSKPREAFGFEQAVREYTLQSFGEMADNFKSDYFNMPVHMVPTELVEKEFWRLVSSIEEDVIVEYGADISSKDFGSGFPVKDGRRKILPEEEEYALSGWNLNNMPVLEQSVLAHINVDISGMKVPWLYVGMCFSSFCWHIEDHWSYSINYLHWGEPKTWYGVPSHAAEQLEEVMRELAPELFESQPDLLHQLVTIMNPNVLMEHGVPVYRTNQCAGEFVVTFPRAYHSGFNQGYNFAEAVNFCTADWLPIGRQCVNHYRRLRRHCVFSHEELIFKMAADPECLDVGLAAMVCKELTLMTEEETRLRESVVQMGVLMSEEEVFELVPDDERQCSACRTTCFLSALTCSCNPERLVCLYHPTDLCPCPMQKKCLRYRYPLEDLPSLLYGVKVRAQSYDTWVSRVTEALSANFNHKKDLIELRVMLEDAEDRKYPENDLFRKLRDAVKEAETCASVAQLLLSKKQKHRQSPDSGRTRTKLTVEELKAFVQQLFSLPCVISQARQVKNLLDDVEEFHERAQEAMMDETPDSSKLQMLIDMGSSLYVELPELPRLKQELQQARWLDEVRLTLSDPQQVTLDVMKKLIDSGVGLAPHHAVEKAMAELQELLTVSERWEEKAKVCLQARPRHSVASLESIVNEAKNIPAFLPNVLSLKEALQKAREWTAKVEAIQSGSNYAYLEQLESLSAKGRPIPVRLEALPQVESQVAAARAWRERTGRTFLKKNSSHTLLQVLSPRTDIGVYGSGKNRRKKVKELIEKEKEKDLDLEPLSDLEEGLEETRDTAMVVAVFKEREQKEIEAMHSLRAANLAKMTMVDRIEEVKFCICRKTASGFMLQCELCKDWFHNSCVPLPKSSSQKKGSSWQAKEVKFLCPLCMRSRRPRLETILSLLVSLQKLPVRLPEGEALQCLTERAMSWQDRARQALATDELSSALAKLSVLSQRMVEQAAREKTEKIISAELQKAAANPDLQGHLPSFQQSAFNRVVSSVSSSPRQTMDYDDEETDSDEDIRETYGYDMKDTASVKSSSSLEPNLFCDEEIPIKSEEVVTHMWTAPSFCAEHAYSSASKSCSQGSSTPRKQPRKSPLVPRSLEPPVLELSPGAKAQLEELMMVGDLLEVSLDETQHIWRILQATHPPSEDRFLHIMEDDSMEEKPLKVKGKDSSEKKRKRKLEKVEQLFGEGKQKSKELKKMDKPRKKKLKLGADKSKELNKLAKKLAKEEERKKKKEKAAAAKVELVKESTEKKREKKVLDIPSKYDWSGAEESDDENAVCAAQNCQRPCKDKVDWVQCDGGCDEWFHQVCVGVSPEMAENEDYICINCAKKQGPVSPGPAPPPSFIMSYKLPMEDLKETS

Structure (SMILES) | IC50 [1] [nM] | Metabolic stability in human liver microsomes (% remaining at 60 min) ([3]; human, microsomes, 1 h) [%] | also measured
CC(C)n1cnc(C(=O)N2C[C@@H]3[C@H](C2)[C@H]3C2=NOC(C)(C)C2)c1 [Example 1, [(1R,5S,6r)-6-(5,5-dimethyl-4,5-dihydro-1,2-oxazol-3-yl)-3-azabicyclo[3.1.0]hex-3-yl](1-isopropyl-1H-imidazol-4-yl)methanone] | 20 |  | concentration at 2 h ([2]; brain, oral, 2 h, values with * obtained by proportional calculation from the 3 mg/kg data, read-out: Unbound-Brain Concentration at 2 h at 1 mg/kg): 93.7 ng/g; Metabolic stability in human liver microsomes (% remaining at 60 min) [3, 4]: 95%
CC[C@H](C)n1cnc(C(=O)N2C[C@@H]3[C@H](C2)[C@H]3C2=NOC(C)(C)C2)c1 [Example 12, {1-[(2S)-butan-2-yl]-1H-imidazol-4-yl}[(1R,5S,6S)-6-(5,5-dimethyl-4,5-dihydro-1,2-oxazol-3-yl)-3-azabicyclo[3.1.0]hex-3-yl]methanone] | 60 |  | concentration at 2 h [2, 5]: 10.8 ng/g; Metabolic stability in human liver microsomes (% remaining at 60 min) [3, 4]: 100%
CC1(C)CC([C@H]2[C@@H]3CN(C(=O)c4cn(C5(C)CC5)cn4)C[C@@H]32)=NO1 [Example 33, [(1R,5S,6r)-6-(5,5-dimethyl-4,5-dihydro-1,2-oxazol-3-yl)-3-azabicyclo[3.1.0]hex-3-yl][1-(1-methylcyclopropyl)-1H-imidazol-4-yl]methanone] | 30 |  | concentration at 2 h [2, 5]: 62.1 ng/g; Metabolic stability in human liver microsomes (% remaining at 60 min) [3, 4]: 103%
CC(C)n1cnc(C(=O)N2C[C@@H]3[C@H](C2)[C@H]3C(=O)C2CC2)c1 [Example 75, cyclopropyl{(1R,5S,6r)-3-[(1-isopropyl-1H-imidazol-4-yl)carbonyl]-3-azabicyclo[3.1.0]hex-6-yl}methanone] | 400 | 102 | 
CC(C)n1cnc(C(=O)N2C[C@@H]3[C@H](C2)[C@@]3(C)C2=NOC3(CC3)C2)c1 [Example 84, (1-isopropyl-1H-imidazol-4-yl)[(1R,5S,6r)-6-methyl-6-(4-oxa-5-azaspiro[2.4]hept-5-en-6-yl)-3-azabicyclo[3.1.0]hex-3-yl]methanone] | 30 |  | Metabolic stability in human liver microsomes (% remaining at 60 min) [3, 6]: 92%
CC(C)n1cnc(C(=O)N2C[C@@H]3[C@H](C2)[C@@]3(C)C(=O)NC(C)(C)C)c1 [Example 87, (1R,5S,6r)-N-tert-butyl-6-methyl-3-[1-(propan-2-yl)-1H-imidazole-4-carbonyl]-3-azabicyclo[3.1.0]hexane-6-carboxamide] | 40 |  | Metabolic stability in human liver microsomes (% remaining at 60 min) [3, 6]: 99%
CC(c1cc(C(=O)N2C[C@@H]3C(C4=NOC(C)(C)C4)[C@@H]3C2)n[nH]1)C1CC1 (stereo partly drawn) [Example 90, [5-(1-cyclopropylethyl)-1H-pyrazol-3-yl][(1R,5S,6r)-6-(5,5-dimethyl-4,5-dihydro-1,2-oxazol-3-yl)-3-azabicyclo[3.1.0]hex-3-yl]methanone] | 50 |  | Metabolic stability in human liver microsomes (% remaining at 60 min) [3, 6]: 100%
CC1CC(C2[C@H]3CN(C(=O)c4cc(C(C)C)[nH]n4)C[C@@H]23)=NO1 (stereo partly drawn) [Example 93, (5-isopropyl-1H-pyrazol-3-yl)[(1R,5S,6r)-6-(5-methyl-4,5-dihydro-1,2-oxazol-3-yl)-3-azabicyclo[3.1.0]hex-3-yl]methanone] | 200 | 86 | 
CC(C)c1cc(C(=O)N2C[C@@H]3[C@H](C2)[C@H]3C2=NO[C@H]3C[C@@H]23)n[nH]1 [Example 96, (5-isopropyl-1H-pyrazol-3-yl){(1R,5S,6r)-6-[(1S,5S)-2-oxa-3-azabicyclo[3.1.0]hex-3-en-4-yl]-3-azabicyclo[3.1.0]hex-3-yl}methanone] | 30 | 83 | 
CCN1C([C@H]2[C@@H]3CN(C(=O)c4cc(C(C)C)[nH]n4)C[C@@H]32)=NOC1(C)C [Example 110, [(1R,5S,6r)-6-(4-ethyl-5,5-dimethyl-4,5-dihydro-1,2,4-oxadiazol-3-yl)-3-azabicyclo[3.1.0]hex-3-yl](5-isopropyl-1H-pyrazol-3-yl)methanone] | 50 | 85 | 
Cc1nnc([C@H]2[C@@H]3CN(C(=O)c4cc(C(C)C)[nH]n4)C[C@@H]32)o1 [Example 119, (5-isopropyl-1H-pyrazol-3-yl)[(1R,5S,6r)-6-(5-methyl-1,3,4-oxadiazol-2-yl)-3-azabicyclo[3.1.0]hex-3-yl]methanone] | 300 | 102 | 
CC(C)c1cc(C(=O)N2C[C@@H]3[C@H](C2)[C@H]3c2nncn2-c2ccccc2)n[nH]1 [Example 121, (5-isopropyl-1H-pyrazol-3-yl)[(1R,5S,6r)-6-(4-phenyl-4H-1,2,4-triazol-3-yl)-3-azabicyclo[3.1.0]hex-3-yl]methanone] | 40 | 114 | 
Cc1nnc([C@H]2[C@@H]3CN(C(=O)c4cc(C(C)C)[nH]n4)C[C@@H]32)n1C1CCC1 [Example 124, [(1R,5S,6r)-6-(4-cyclobutyl-5-methyl-4H-1,2,4-triazol-3-yl)-3-azabicyclo[3.1.0]hex-3-yl](5-isopropyl-1H-pyrazol-3-yl)methanone] | 40 | 97 | 
COc1ccc2nnc([C@H]3[C@@H]4CN(C(=O)c5cc(C(C)C)[nH]n5)C[C@@H]43)n2c1 [Example 131, (5-isopropyl-1H-pyrazol-3-yl)[(1R,5S,6r)-6-(6-methoxy[1,2,4]triazolo[4,3-a]pyridin-3-yl)-3-azabicyclo[3.1.0]hex-3-yl]methanone] | 10 | 84 | 
CC(C)NC(=O)[C@H]1[C@@H]2CN(C(=O)c3cc(C(C)C)[nH]n3)C[C@@H]21 [Example 136, (1R,5S,6r)-N-(propan-2-yl)-3-[5-(propan-2-yl)-1H-pyrazole-3-carbonyl]-3-azabicyclo[3.1.0]hexane-6-carboxamide] | 50 | 97 | 
C[C@]1(C2=NOC3(CC3)C2)[C@@H]2CN(C(=O)c3cc(C4CC4)[nH]n3)C[C@@H]21 [Example 144, (5-cyclopropyl-1H-pyrazol-3-yl)[(1R,5S,6r)-6-methyl-6-(4-oxa-5-azaspiro[2.4]hept-5-en-6-yl)-3-azabicyclo[3.1.0]hex-3-yl]methanone] | 20 |  | Metabolic stability in human liver microsomes (% remaining at 60 min) [3, 6]: 101%
CC(C)c1cc(C(=O)N2C[C@@H]3[C@H](C2)[C@@]3(C)C(=O)NC(C)(C)C)n[nH]1 [Example 145, (1R,5S,6r)-N-tert-butyl-6-methyl-3-[5-(propan-2-yl)-1H-pyrazole-3-carbonyl]-3-azabicyclo[3.1.0]hexane-6-carboxamide] | 90 | 99 | 
CC(C)c1cc(C(=O)N2CC[C@@H](NC(=O)C3CC3)C2)[nH]n1 [comparative compound, (R)—N-(1-(3-isopropyl-1H-pyrazole-5-carbonyl)pyrrolidin-3-yl)cyclopropane carboxamide, reference compound] |  |  | concentration at 2 h ([2]; brain, oral, 2 h, comparative compound, dose not restated in the sentence, read-out: Unbound-Brain Concentration at 2 h): 2.5 ng/g
